Data reported in ChEMBL document CHEMBL5360642, “Assimiloside A, a Glycolipid with Immunomodulatory Activity from the Northwestern Pacific Marine Sponge Hymeniacidon assimilis” (2023).
Calls of active or inactive are those of the source. No cut-off for these calls is given here.

Experiments:
RAW264.7 [1] = test: Induction of ROS production in mouse RAW264.7 cells assessed as increase in intracellular ROS formation at 10 uM incubated for 3 hrs by DCFH2-DA staining based assay relative to control; type: functional
RAW264.7 [2] = test: Induction of ROS production in mouse RAW264.7 cells assessed as increase in intracellular ROS formation at 0.01 to 0.1 uM incubated for 3 hrs by DCFH2-DA staining based assay relative to control; type: functional; details: dose 0.01-0.1 µM
RAW264.7 [3] = test: Immunomodulatory activity in mouse RAW264.7 cells assessed as stimulation of lysosomal activity at 0.01 to 10 uM incubated for 2 hrs by acridine orange based fluorescence microplate reader analysis relative to control; type: functional; details: dose 0.01-10 µM
RAW264.7 [4] = test: Induction of ROS production in mouse RAW264.7 cells assessed as increase in intracellular ROS formation at 1 uM incubated for 3 hrs by DCFH2-DA staining based assay relative to control; type: functional, cell-based

What does the source list for `CC[C@@H](O)CCCCCCCCCC(CCCCCCCCCCC[C@@H]1CCC(=O)O1)O[C@@H]1O[C@H](CO[C@@H]2OC[C@@H](O)[C@H](O)[C@H]2O)[C@@H](O)[C@H](O)[C@H]1O[C@@H]1OC[C@@H](O)[C@H](O)[C@H]1O` (some centres undefined)?
Activity (RAW264.7 [1]): 15%; Activity (RAW264.7 [2]): 15%; Activity (RAW264.7 [3]): 25%; Activity (RAW264.7 [4]): inactive
